Experimental data reported in ChEMBL document CHEMBL1135095, “3-D QSAR studies on new dibenzyltin(IV) anticancer agents by comparative molecular field analysis (CoMFA)” (Bioorg Med Chem Lett, 2002).

Key:
[1] = tested on: IGROV-1; assay: In vitro antitumor activity against IGROV human cancer cell line; assay type: functional, cell-based
[2] = tested on: SK-MEL19; assay: In vitro antitumor activity against MEL 19 human cancer cell line; assay type: functional, cell-based
[3] = tested on: WiDr; assay: In vitro antitumor activity against WIDR human cancer cell line; assay type: functional, cell-based
[4] = species: Mus musculus; assay: Lethal dose in swiss albino mice by peroral route; assay type: toxicity, organism-based; conditions: in vivo, po

| Sequence | ID50 [1] [µM] | ID50 [2] [µM] | ID50 [3] [µM] | LD50 [4] [mg/kg] |
| --- | --- | --- | --- | --- |
| CARBOPLATIN [listing 1 of 2 here] | 646 | 1480 | 943 | – |
| CISPLATIN [listing 1 of 2 here] | 75 | 260 | 450 | – |
| CISPLATIN [listing 2 of 2 here] | – | – | – | 31 |
| CARBOPLATIN [listing 2 of 2 here] | – | – | – | 150 |
